In US9580487B2, “Method of treating stomach or bowel-related disorders by administering glucagon-like-peptide-2 (GLP-2) analogues” (Zealand Pharma A/S, priority 2005, dated 2017):
No end group written: not given here.

Key:
[1] = system: male Sprague Dawley rats treated with indomethacin; assay: Indomethacin-induced small intestinal ulcers (model of Crohn's disease), extent of ulceration; assay type: in vivo; details: for Effect on ulceration compared with prednisolone: highest dose 200 nmol/kg vs prednisolone 10 mg/kg; for Estimated extent of ulceration: indomethacin alone 333±21 mm^2
Description: FIG. 13 is a graph illustrating the effect of compound 1848 (SEQ ID NO:36) on small intestinal ulcers induced by indomethacin. Male Sprague Dawley rats were treated with vehicle (saline; group 1) or indomethacin (7 mg/kg s.c., once daily for two days; groups 2-7). Indomethacin was given alone (group 2) or in combination with prednisolone (10 mg/kg s.c.; group 3) or with 8, 40, or 200 nmol/kg compound 1848 (SEQ ID NO:36) s.c. […] (groups 4-6). Finally, one group of rats was treated with combination treatment of prednisolone (10 mg/kg s.c.) and compound 1848 (SEQ ID NO:36), 200 nmol/kg s.c. once daily (group 7). Treatment with compound 1848 (SEQ ID NO:36) was initiated 4 days prior to indomethacin and continued during the two days of indomethacin treatment. On day 3, rats were sacrificed and upon necropsy, the small intestine was gently flushed with 10% formalin and filled with formalin for a period of 5 minutes, after which the intestine was cut open along the antimesenteric margin and suspended on a polypropylene plate. Any remaining intestinal contents were carefully removed with a pair of tweezers. After fixation for another 24 hours at room temperature, the tissue was rinsed in Milli-Q water and surface-stained for 20 minutes with Alcian Green 3BX (Chroma) prepared as a 0.5% solution in 1% acetic acid (Bie & Berntsen). After removal of excess staining solution with Milli-Q water the tissue preparation was transferred to 70% alcohol and analyzed using a stereomicroscope at low magnification (×7). Starting at the pylorus, the small intestine was scanned and the shape (circular vs. linear) and size (circular ulcers: diameter, linear ulcers: length×width) of all ulcers was measured using a standard ruler (resolution: 0.5 mm). An ulcer was defined as an area, which lacked epithelial surface. In healing ulcers only the area that still lacked epithelial surface was regarded an ulcer even if the villus structure was still missing in a larger area. All analysis was performed in a blinded manner. […] Treatment with prednisolone caused a significant reduction in the extent of ulceration by app. 29%. […] Values are means±SEM. * P<0.05 vs. indomethacin (group 2). ^#P<0.05 vs. prednisolone (group 3).
Crohn's disease is a chronic disease that causes episodic inflammation of the small intestine. The effect of the GLP-2 analogue 1848 (SEQ ID NO:36) on small intestinal inflammation in an indomethacin-induced model of Crohn's disease was investigated. We have previously shown that administration of indomethacin (s.c, once daily for 2 days) induces small intestinal inflammation characterized by ulcerations and, increases in the pro-inflammatory cytokine, tumour necrosis factor alpha (TNF-α).
To determine the effect of ZP1848 (SEQ ID NO:36) on ulceration 1848 (SEQ ID NO:36) (8, 40 and 200 nmol/kg, s.c, twice daily (9:00 and 16:00)) was given for 4 days prior to the first dose of indomethacin and for an additional two days together with indomethacin. The corticosteroid, prednisolone (10 mg/kg, p.o) was used as a positive control since corticosteroids are commonly used in the treatment of active inflammation in Crohn's disease. In addition a group of animals were given both 1848 (SEQ ID NO:36) (200 nmol/kg) and prednisolone to determine the effects of a combination treatment. Twenty four hours after the last dose of 1848 (SEQ ID NO:36) had been given the animals were sacrificed the small intestine was gently flushed clean and fixed. To determine the extent of ulceration the intestine was cut open along the antimesenteric margin, suspended on a polypropylene plate and surface-stained with Alcian Green 3BX. Starting at the pylorus, the small intestine was scanned and the shape (circular vs. linear) and size (circular ulcers: diameter, linear ulcers: length×width) of all ulcers was measured using a standard ruler (resolution: 0.5 mm). An ulcer was defined as an area, which lacked epithelial surface. […]

TNF-α = assay: Small intestinal tissue content of TNF-α (ELISA) in rats with indomethacin-induced inflammation; assay type: in vivo; details: for Tissue levels of TNF-α, proximal segment: indomethacin alone 97±14, control 34±7
Description: Male Sprague Dawley rats were treated with vehicle (saline; group 1) or indomethacin (7 mg/kg s.c., once daily for two days; groups 2-7). […] On day 3, rats were sacrificed and upon necropsy, the small intestine was divided into three segments of equal length corresponding to 1) duodenum and proximal jejunum, 2) mid and distal jejunum and 3) ileum. Samples were immediately snap-frozen in liquid N2 and stored at −80° C. until analysis. Homogenization and extraction of cellular protein from small intestinal segments was performed according to the following procedure: Tissue segments were weighed and added a volume of 1.5 ml per gram tissue ice-cold (4° C.) extraction buffer (10 mM Tris-HCl (Sigma) and 1 mM EDTA (J. T. Baker), (pH 7.6) with 0.05% sodium azide (Fluka), 1% Tween-80 (Fluka), 2 mM phenylmethylsulfonyl fluoride (PMSF, Fluka) and 1 μg/ml of each of the protease inhibitors aprotinin, leupeptin and pepstatin A (Roche Diagnostics)). The tissue was cut into small bits with a pair of scissors and homogenized three times for 20 seconds (IKA UltraTurrax T25 homogenizer, Janke & Kunkel) at 9500 rpm with intermittent cooling on ice for 30 seconds. The homogenate was centrifuged at 20.000×g for 30 minutes at 4° C., the supernatant was collected and stored at −20° C. until analysis for TNF-α small intestinal protein extractions were analyzed for TNF-α using a commercially available ELISA kit according to the manufacturer's instructions (Rat Tumor Necrosis Factor-α UltraSensitive ELISA kit, Biosource International Inc.). The assay has a detection limit of 0.7 pg/ml. Protein extractions were analyzed for total protein content using a commercially available assay (DC protein assay, Bio-Rad Laboratories Ltd.). Small intestinal tissue levels of TNF-α were expressed relative to total protein. […] Values are means±SEM. * P<0.05 vs. indomethacin (group 2).
At sacrifice, however the small intestine was separated into three segments of equal length (proximal, mid and distal). TNF-α concentrations were measured in each of the individual segments using a commercially available ELISA kit.

Substance | Effect on ulceration compared with prednisolone [1] | Estimated extent of ulceration ([1]; 8 nmol/kg s.c.) [mm^2] | Estimated extent of ulceration ([1]; 40 nmol/kg s.c.) [mm^2] | Ulceration: addition of prednisolone to high dose compound ([1]; 200 nmol/kg plus prednisolone 10 mg/kg) | Estimated extent of ulceration ([1]; 200 nmol/kg s.c.) [mm^2] | Prevention of indomethacin-induced ulceration (in words) ([1]; 8, 40, 200 nmol/kg) | Reduction of total ulceration ([1]; highest dose (200 nmol/kg) vs indomethacin alone) [%] | Tissue levels of TNF-α, proximal segment (TNF-α; 8 nmol/kg) [pg/mg protein] | Tissue levels of TNF-α, proximal segment (TNF-α; 40 nmol/kg) [pg/mg protein] | Tissue levels of TNF-α, proximal segment (TNF-α; 200 nmol/kg) [pg/mg protein] | Small intestinal tissue levels of TNF-α (in words) (TNF-α; 8, 40 or 200 nmol/kg, indomethacin-treated rats) | Tissue levels of TNF-α, mid segment (in words) (TNF-α; 40 or 200 nmol/kg, indomethacin alone 108±9 pg/mg protein) | TNF-α levels, distal segment (in words) (TNF-α; indomethacin alone 75±5 pg/mg protein) | TNF-α: efficacy compared with prednisolone (TNF-α; vs prednisolone 10 mg/kg)
[Gly2, Glu3, Ser8,11, Leu10, Ala16,24,28]hGLP-2(1-33)-(Lys)6-NH2 (HGEGSFSSELSTILDALAARDFIAWLIATKITDKKKKKK-NH2) [Compound 1846] | greater than the effect of prednisolone | – | – | – | – | – | – | – | – | – | – | – | – | –
[Gly2, Glu3, Thr5, Ser8, Leu10, Ala11,16,24,28]hGLP-2(1-33)-(Lys)6-NH2 (HGEGTFSSELATILDALAARDFIAWLIATKITDKKKKKK-NH2) [Compound 1848] | more effective than the positive control, prednisolone | 230±12 | 216±17 | did not produced any additional effect | 178±17 | prevented indomethacin-induced ulceration in a dose-dependent fashion | ~50 | 45±14 | 44±9 | 45±7 | significantly decreased small intestinal tissue levels of the proinflammatory cytokine TNF-α | significantly reduced tissue levels of TNF-α | inhibitory effect on TNF-α levels in the distal segment but the effect was less pronounced compared to the other segments | more efficacious than prednisolone in the proximal and mid segments
